Data as given in PMC8996149 (Acta Crystallographica. Section F, Structural Biology …, 2022).

Assays:
[1] = biological target: T1, SALDAP (Alpine soil metagenome-derived salicylaldehyde dehydrogenase) (soil metagenome, UniProt Z9QUQ6R3A5); assay: differential scanning fluorimetry (SYPRO Orange); type: binding; details: 2 mM ligand, 6 µM enzyme, 50 mM HEPES pH 7.4; no NAD+; untreated enzyme Tm 67.9 ± 0.17 °C
T1 construct: pLATE51, N-terminal 6xHis tag (no cleavage told), E. coli BL21 (DE3), purified; homodimer about 115 kDa; EC 1.2.1.65
Text: differential scanning fluorimetry (SYPRO Orange) on SALDAP (Alpine soil metagenome-derived salicylaldehyde dehydrogenase)

[2] = biological target: T1, SALDAP (Alpine soil metagenome-derived salicylaldehyde dehydrogenase); assay: X-ray crystal structure, […] Å; type: binding; details: active site, one ligand per monomer; ligand identity chosen by best fit to electron density (putative), no ligand added to the drop is told; pH 4.6
[3] = biological target: the molecule itself; assay: SEC; analytical gel filtration on Sephacryl S-300 (K 9/30 column), 50 mM Tris-HCl, 17 mM Tris base, 150 mM NaCl pH 7.4, calibrated with standard proteins; mass estimated from the elution volume

Melting temperature (T m) (°C) [1] [°C] | Molecule | X-ray crystal structure, 1.9 Å [2] | stoichiometry N [3]
69.2 ± 0.25 | O=C(O)c1ccc(O)c(O)c1 [protocatechuic acid] | protocatechuic acid (PCA) was chosen as the ligand bound to the active site | –
– | Alpine soil metagenome-derived salicylaldehyde dehydrogenase (SALDAP) (enzyme, salicylaldehyde dehydrogenase SALDAP (EC 1.2.1.65) from an alphaproteobacterium, gene found by gene-targeted assembly in an Alpine soil metagenome; The pLATE51 vector adds the N-terminal 6×His tag; also called 6×His-SALDAP; 6×His SALDAP; not shown: 6×His, N-terminal, kept) MRGLTVNFERINPMTNQTASTAKAMTAAEARAVADRAAAGFAGWSVLGPNARRAVLMKAAAALEARKDDFVQAMMAEIGATAGWAMFNLMLAASMIREAAALTTQIGGEVIPSDKPGCLALALREPVGVVLGIAPWNAPIILGVRAIAVPLACGNAVILKASEICPRTHGLIIESFAEAGFPEGVVNVVTNAPQDAGEVVGALIDHPAVKRINFTGSTGVGRIIAKRAAEHLKPCLLELGGKAPLVVLDDADLDEAAKAAAFGAFMNQGQICMSTERIIVVEAIAAEFTRRFAAKAQSMATGDPREGKTPLGAVVDRKTVDHVNTLIDDATAKGARIIAGGKGDSVLMSATVVDGVTAAMKLYRDESFGPIVGIIRAKDEADAVRLANDSEYGLAAAVFTRDTARGLRVARQIRSGICHINGPTVHDEAQMPFGGVGASGYGRFGGKAGIDQFTELRWITMETQPGHFPI | – | 2
